For data set [1], the target named is T1, RORγt (Homo sapiens, UniProt P51449).
T1 sequence (P51449 269-508 limits assumed): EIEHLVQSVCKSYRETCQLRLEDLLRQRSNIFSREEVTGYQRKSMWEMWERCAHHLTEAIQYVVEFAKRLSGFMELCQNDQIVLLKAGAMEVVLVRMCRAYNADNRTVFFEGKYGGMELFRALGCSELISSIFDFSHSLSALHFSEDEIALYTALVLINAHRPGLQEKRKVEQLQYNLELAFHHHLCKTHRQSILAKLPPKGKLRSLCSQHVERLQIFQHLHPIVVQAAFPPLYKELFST
The data set can be described thus: In vitro luciferase reporter assay of RORγt inhibition (GAL4-RORγ-LBD in HEK293T). To be noted: for IC50: IC50, RORγt luciferase reporter gene, HEK293T; for Emax % / Emax: relative maximum inhibition rate relative to AZD-0284 at 10 μM; for Emax: HEK-293T. (In general: A reporter such as luciferase makes a cellular process visible.)
Source text: The RORγ-LBD coding sequence was inserted into pBIND plasmid (Promega, E1581). The expression vector and a reporter vector (pGL4.35 carrying a stably integrated luciferase reporter gene driven by GAL4 promoter) were co-expressed in HEK293T host cells. When the inhibitor binds to the corresponding chimeric receptor, the chimeric receptor binds to the GAL4 binding site on the reporter gene carrier and inhibits reporter gene expression. The inhibition activity of the compounds on RORγ was determined according to the intensity of the chemiluminescence signal.
2.2 Cell Transfection • a) Balancing the Trans-IT transfection reagent at room temperature; • b) Adding 20 μl of the transfection reagent and 600 μl of Opti-MEM™ medium without contacting the tube wall, mixing uniformly through blowing and pipetting by a pipette gun, and allowing to stand at room temperature for 5 minutes; • c) Adding 10 μg of the plasmid to the transfection reagent (see Step 2.2.b), and allowing to stand at room temperature for 20 minutes; • Plasmids: 5 μg of pBIND-RORγ and 5 μg of pGL4.35 plasmids were respectively added therein; • d) Adding the mixed DNA transfection reagent to a 100 mm cell culture dish (see Step 2.1); • e) Placing the dish in an incubator at 37° C. and 5% CO2 for 5 h. […] Calculation of % Inhibition
[formula] • RLUcmpd: fluorescence value of test compounds • RLUpositive: average value of positive control • RLUvehicle: average value of negative control
IC50s of the compounds were calculated by fitting the % Inhibition and the logarithm values of the compound concentration using Graphad 8.0.

A short description of data set [2]: Pharmacokinetic (PK) assay in mice. In kind it is in vivo, C57BL/6 mice. On the procedure: The PK of each compound was determined as follows: 6 C57BL/6 mice (obtained from Shanghai Lingchang Biotechnology Co., Ltd.) were divided into two groups with 3 in each group. One group was administered intravenously at a dose of 1 mg/kg in the vehicle of 5% DMSO/95% (20% Captisol); the other group was administered by oral gavage at a dose of 5 mg/kg in the vehicle of 0.5% CMC-Na/0.5% Tween 80. Blood samples were collected from saphenous vein of lower leg in each group at 0, 0.083, 0.25, 0.5, 1, 2, 4, 6, 8 and 24 h after administration. Approximately 40 μL of the blood samples were collected into anticoagulant tubes containing EDTA-K2 Immediately after collection, the tubes were inverted at least 5 times to ensure uniform mixing, and then placed on ice. The blood samples collected at each time point were centrifuged at 4° C., 8000 rpm for 5 minutes to obtain plasma. Another 1.5 mL centrifuge tube was marked with the compound name, animal number, and time point, and the plasma was transferred to this tube. The plasma was stored at −80° C. until analysis.
Compound concentrations in the plasma were determined by UPLC-MS/MS method, and the pharmacokinetic parameters were calculated from the obtained data by Phoenix WinNolin 6.4 pharmacokinetic software.

The mark [3] stands for this setting: C57BL/6, mouse, plasma, IV, 1 mg/kg.
Setting [4] is: C57BL/6, mouse, plasma, Po, 5 mg/kg.

The structures appear in SMILES notation.

In data set [1], `CCS(=O)(=O)c1ccc2c(c1)CCN(C(C)=O)C2C(=O)Nc1ccc(C(O)(C(F)(F)F)C(F)(F)F)cc1` (single isomer, unassigned) [Example 3, (S)-2-acetyl-6-(ethylsulfonyl)-N-(4-(1,1,1,3,3,3-hexafluoro-2-hydroxypropan-2-yl)phenyl)-1,2,3,4-tetrahydroisoquinoline-1-carboxamide or (R)-2-acetyl-6-(ethylsulfonyl)-N-(4-(1,1,1,3,3,3-hexafluoro-2-hydroxypropan-2-yl)phenyl)-1,2,3,4-tetrahydrosoquinoline-1-carboxamide] gave an IC50 of 681 nM and an Emax % of 111.3%.

In data set [1], `CCS(=O)(=O)c1ccc2c(c1)CCN(C(C)=O)C2C(=O)Nc1ccc(C(F)(C(F)(F)F)C(F)(F)F)cc1` (single isomer, unassigned) [Example 8, (R)-2-acetyl-6-(ethylsulfonyl)-N-(4-(perfluoropropan-2-yl)phenyl)-1,2,3,4-tetrahydroisoquinoline-1-carboxamide or (S)-2-acetyl-6-(ethylsulfonyl)-N-(4-(perfluoropropan-2-yl)phenyl)-1,2,3,4-tetrahydroisoquinoline-1-carboxamide] had an Emax of 99.2% and an IC50 of 3.78 nM.

In the case of `CCS(=O)(=O)c1ccc2c(c1)CCN(C(C)=O)C2C(=O)Nc1ccc(C(F)(C(F)(F)F)C(F)(F)F)cc1` (single isomer, unassigned) [Example 9, (S)-2-acetyl-6-(ethylsulfonyl)-N-(4-(perfluoropropan-2-yl)phenyl)-1,2,3,4-tetrahydroisoquinoline-1-carboxamide or (R)-2-acetyl-6-(ethylsulfonyl)-N-(4-(perfluoropropan-2-yl)phenyl)-1,2,3,4-tetrahydroisoquinoline-1-carboxamide], in data set [1], inhibition was half-maximal at 616 nM (IC50) and the Emax % amounted to 107.1%.

For the compound `CC(=O)N1Cc2cc(S(C)(=O)=O)ccc2[C@@H]1C(=O)Nc1ccc(C(O)(C(F)(F)F)C(F)(F)F)cc1` [AZD-0284, reference compound], in data set [2] (setting [3]), the exposure AUC(0-t) is 1180 ng·h/mL, the highest level (Cmax) was 2480 ng/mL and the half-life is 7.75 h. For the same compound, in data set [2] (C57BL/6, mouse, plasma, IV, 1 mg/kg, read-out: Vss), the Vd amounted to 6.29 L/kg. The bioavailability in data set [2] (C57BL/6, mouse, plasma, Po 5 mg/kg vs IV 1 mg/kg) was 38%. For the same compound, in data set [2] (setting [4]), the AUC(0-t) was determined as 2780 ng·h/mL, the Cmax worked out at 264 ng/mL and the half-life is 3.35 h. Also, in data set [2] (IV, 1 mg/kg), the CL_obs is recorded as 12.6 mL/min/kg.

In data set [1], `CCS(=O)(=O)c1ccc2c(c1)CCN(C(=O)CCC(=O)O)C2C(=O)Nc1ccc(C(O)(C(F)(F)F)C(F)(F)F)cc1` (stereo not shown) [Example 4, 4-(6-(Ethylsulfonyl)-1-((4-(1,1,1,3,3,3-hexafluoro-2-hydroxypropan-2-yl)phenyl)carbamoyl)-3,4-dihydroisoquinolin-2(1H)-yl)-4-oxobutanoic acid] gave an Emax of 73.8% and an IC50 of 3050 nM.

On to `CCS(=O)(=O)c1ccc2c(c1)CCN(C(C)=O)C2C(=O)Nc1ccc(C(O)(C(F)(F)F)C(F)(F)F)cc1F` (stereo not shown) [Example 10, 2-Acetyl-6-(ethylsulfonyl)-N-(2-fluoro-4-(1,1,1,3,3,3-hexafluoro-2-hydroxypropan-2-yl)phenyl)-1,2,3,4-tetrahydroisoquinoline-1-carboxamide], for which, in data set [1], the Emax worked out at 102% and the IC50 was found to be 40.5 nM.

In data set [1], `CC(=O)N1CCc2cc(S(C)(=O)=O)ccc2C1C(=O)Nc1ccc(C(O)(C(F)(F)F)C(F)(F)F)cc1F` (stereo not shown) [Example 11, 2-Acetyl-N-(2-fluoro-4-(1,1,1,3,3,3-hexafluoro-2-hydroxypropan-2-yl)phenyl)-6-(methylsulfonyl)-1,2,3,4-tetrahydroisoquinoline-1-carboxamide] yielded an Emax of 104% and an IC50 of 91.3 nM.

Turning to `CCS(=O)(=O)c1ccc2c(c1)CCN(C(C)=O)C2C(=O)Nc1ccc(OC(F)(F)F)cc1` (stereo not shown) [Example 12, 2-Acetyl-6-(ethylsulfonyl)-N-(4-(trifluoromethoxy)phenyl)-1,2,3,4-tetrahydroisoquinoline-1-carboxamide], in data set [1], the Emax came out at 95.7% and the IC50 amounted to 290 nM.

For the compound `CCC(=O)N1CCc2cc(S(=O)(=O)CC)ccc2C1C(=O)Nc1ccc(C(O)(C(F)(F)F)C(F)(F)F)cc1` (stereo not shown) [Example 13, 6-(Ethylsulfonyl)-N-(4-(1,1,1,3,3,3-hexafluoro-2-hydroxypropan-2-yl)phenyl)-2-propionyl-1,2,3,4-tetrahydroisoquinoline-1-carboxamide], in data set [1], the Emax came to 101% and 154 nM corresponded to half-maximal inhibition (IC50).

Regarding `CCS(=O)(=O)c1ccc2c(c1)CCN(C(=O)C1CC1)C2C(=O)Nc1ccc(C(O)(C(F)(F)F)C(F)(F)F)cc1` (stereo not shown) [Example 14, 2-(Cyclopropanecarbonyl)-6-(ethylsulfonyl)-N-(4-(1,1,1,3,3,3-hexafluoro-2-hydroxypropan-2-yl)phenyl)-1,2,3,4-tetrahydroisoquinoline-1-carboxamide], in data set [1], the Emax amounted to 98.8% and the half-maximal inhibitory concentration (IC50) turned out to be 83.4 nM.

In the case of `CC(=O)N1CCc2cc(S(C)(=O)=O)ccc2C1C(=O)Nc1cc(Cl)c(C2=CCOCC2)c(Cl)c1` (stereo not shown) [Example 17, 2-Acetyl-N-(3,5-dichloro-4-(3,6-dihydro-2H-pyran-4-yl)phenyl)-6-(methylsulfonyl)-1,2,3,4-tetrahydroisoquinoline-1-carboxamide], in data set [1], the Emax was 95.9% and the IC50 came to 67.1 nM.

Take `CCS(=O)(=O)c1ccc2c(c1)CCN(C(C)=O)C2C(=O)Nc1cc(Cl)c(C2=CCOCC2)c(Cl)c1` (stereo not shown) [Example 18, 2-Acetyl-N-(3,5-dichloro-4-(3,6-dihydro-2H-pyran-4-yl)phenyl)-6-(ethylsulfonyl)-1,2,3,4-tetrahydroisoquinoline-1-carboxamide]: in data set [1], the Emax was determined as 95.8% and the IC50 is 107 nM.

In data set [1], `CCS(=O)(=O)c1ccc2c(c1)CCN(C=O)C2C(=O)Nc1ccc(C(O)(C(F)(F)F)C(F)(F)F)cc1` (stereo not shown) [Example 19, 6-(Ethylsulfonyl)-2-formyl-N-(4-(1,1,1,3,3,3-hexafluoro-2-hydroxypropan-2-yl)phenyl)-1,2,3,4-tetrahydroisoquinoline-1-carboxamide] returned an Emax of 101% and a half-inhibitory concentration (IC50) of 14.7 nM.

`CC(=O)N1CCc2cc(S(=O)(=O)CC3CC3)ccc2C1C(=O)Nc1ccc(C(O)(C(F)(F)F)C(F)(F)F)cc1` (stereo not shown) [Example 21, 2-Acetyl-6-((cyclopropylmethyl)sulfonyl)-N-(4-(1,1,1,3,3,3-hexafluoro-2-hydroxypropan-2-yl)phenyl)-1,2,3,4-tetrahydroisoquinoline-1-carboxamide]: in data set [1], the Emax came to 102% and the IC50 is 12.5 nM.

With `CNS(=O)(=O)c1ccc2c(c1)CCN(C(C)=O)C2C(=O)Nc1ccc(C(O)(C(F)(F)F)C(F)(F)F)cc1` (stereo not shown) [Example 22, 2-Acetyl-N-(4-(1,1,1,3,3,3-hexafluoro-2-hydroxypropan-2-yl)phenyl)-6-(N-methylsulfamoyl)-1,2,3,4-tetrahydroisoquinoline-1-carboxamide], in data set [1], the Emax came to 102% and half-maximal inhibition (IC50) required 17.8 nM.

By IC50 is commonly meant the concentration that inhibits the measured activity by half. The low end stands for higher potency, the high end for lower potency. The term Emax denotes the maximal effect, on the per cent scale that the assay sets. The AUC(0-t) is exposure summed from dosing to a finite time, without extrapolation to infinity. What is called Cmax is the highest concentration seen after dosing. As a reminder, the half-life is the time in which the quantity being followed falls by half. A high value points to slow decline. One may read the bioavailability as the share of a dose that reaches the circulation, judged against a reference dose that is usually intravenous. Low readings indicate poor availability, high ones good availability.

These data come from patent US12540117B2, “Aniline compound used as RORγ regulator” (SHANGHAI LITEDD CO., LTD., priority 2020, dated 2026).
